Patent US7326562B2, “Biological indicator system to detect effectiveness of sterilization” (priority 1999, dated 2008)

Tests used:
B. subtilis spores [1] = assay: Ethylene oxide sterilization of biological indicator; viability by MALS, AODC and TSA plating; type: cell-based, Bacillus subtilis
Protocol: The ethylene oxide sterilizer used herein was operated at the Department of Veterans Affairs, Processing & Distribution Section, VAHMCS Baltimore Division (Baltimore, Md.). The sterilizing cycle was fixed to include a 2.5 hour exposure to ethylene oxide followed by a de-gassing cycle of 14.5 hours. A non-biological indicator was used to also monitor the sterilization. A surgicot 2 (Surgicot, Research Triangle Park, N.C.) laminated EO Gas Indicator (Propper Manufacturing Co., Long Island, N.Y.) which registers a change in color after correct processing has been accomplished was used for this purpose.
After completion of the EO sterilization cycle, the BI culture was diluted and the spores were suspended in 5% BHI, as described above. […] Following heat-shock, the sample was incubated at 37° C. for 24 hours to ensure that viable cells could be detected if present. […] Direct plating on TSA was also performed to further determine the presence of viable cells.

B. subtilis spores [2] = test system: B. subtilis spores
Protocol: The sterilization cycle requires about 70 minutes to complete. […] The STERRAD* employed a non-biological indicator comprising a Chemical Indicator strip supplied by the manufacturer which changed from red to yellow (or lighter) as compared to the color bar on the strip when exposed to H2O2 during the processing cycle. Also, a BI (B. subtilis spore strips) was incubated in a nutrient broth for 7 days to determine successful sterilization.
For all H2O2 sterilized cultures, the BI challenge was one ml of B. subtilis spores at a concentration of 1.7×10^8/ml which were air-dried onto a glass slide as described previously elsewhere herein. After completion of the STERRAD Cycle of approximately 70 minutes, the BI culture was diluted and the cells were suspended in 5% BHI, as described above. The culture was diluted to the same concentration as the control BI and the sample was heat-shocked at 70° C. for 10 minutes and incubated at 37° C. for 24 hours to detect any viable cells present. MALS measurements were obtained at 0 minutes, 30 minutes, 1 hour, 2 hours, 3 hours, 4 hours, and 4.75 hours, and parallel samples were obtained for analysis by AODC direct counting. Direct plating on TSA was also performed to determine the presence of viable cells. […]

B. stearothermophilus = conditions: 8% humidified ozone sterilization; cited from earlier work
[3] = target: B. subtilis (Difco) spores; assay: Viable plate counts (CFU) on trypticase soy agar after ozone treatment; type: cell-based, Bacillus subtilis; conditions: for kill of the spore population / viable spores after treatment / CFU % of AODC / CFU % of Control / CFU/ml: 0.3 ppm ozone; for viable spores after treatment: reduction from 2.1×10^6; for CFU/ml: CFU after 24 hours incubation
Protocol: Dried spores from the sample vials or glass slides were eluted into sterile distilled water, plated directly, serially diluted (up to 10^−6), and plated onto TSA. After 18 to 24 hours of incubation at 37° C. for B. subtilis and 55° C. for B. stearothermophilus), the viable colony forming units (CFU) were counted. Plates that had no colonies were incubated for several more days (up to 7 days) to ensure that there were no damaged, but viable spores. From each of the same samples, Trypticase Soy broth was inoculated and incubated for up to seven days to ensure that there were no surviving bacteria in the negative assays.
The spores were eluted from the biological indicator slides or scintillation vials into 20 ml of sterile distilled water and 0.1 ml of the sample was spread onto TSA plates.
(§1) By the use of toggle switches, the ozone was directed through glass spargers into either of two specifically designated 2-liter Erlenmeyer flasks containing one liter of distilled water. Either a solution of a test chemical or a suspension of microorganisms, or both, was introduced into the flasks via tubes at the top, which passed into the flasks through rubber stoppers that sealed off the system. Samples could be withdrawn at the bottom of the flasks by opening a stopcock. The ozone concentrations were measured using chemical oxidation of indigo dye using an Ozone Pocket Colorimeter™ per manufacturer's instructions (HACH, Inc., Loveland, Colo.). Bacillus spores, at a concentration of 2×10^6 spores/milliliter were exposed to ozone for treatment times of 0, 5, 10, 15, 20, and 30 minutes, after which times they were measured by MALS, AODC, and CFU, respectively.
(§2) Ozone treatment of microbes is representative of cold sterilization and disinfection. […] Bacillus subtilis spores, at an concentration of 2×10^6 spores/milliliter were exposed to ozone at treatment times of 0, 5, 10, 15, 20, and 30 minutes, at which times they were measured by MALS, AODC, and CFU, respectively. All measurements were made on spores immediately and without the need for incubation. […] These measurements could be correlated directly with the cumulative concentration of ozone with increasing time of exposure. […] For a kill of […] (reduction from 2.1×10^6 to 1.8×10^3 spores/ml) the CT is 0.3 ppm×15 min=4.5. For a kill of 99.995% (reduction from 2.1×10^6 to 10 spores/mL), it is 0.3 ppm×30 min=9.
(§3) Table 2 gives a direct comparison of MALS, AODC, and CFU data for ozone treatment of B. subtilis spores over at 5-minute intervals over a 30-min period. All MALS and AODC measurements were made on spores immediately after treatment, and in the absence of incubation. Spores were plated immediately onto Trypticase Soy Agar after treatment to verify the number of surviving spores (CFU).
(§4) Ozone treatment of microbes is representative of cold sterilization and disinfection.

B. subtilis = conditions: 8% humidified ozone sterilization; cited from earlier work
[4] = test system: B. subtilis (Difco) spores; assay: Acridine orange direct counts (AODC) of spores directly after ozone treatment; type: cell-based, Bacillus subtilis; conditions: 0.3 ppm ozone
Protocol: One ml samples of the culture to be counted were placed into small conical vials and the cell culture was fixed by adding 30 μl of a 36.5-38.0% formalin solution. After fixing the culture with formalin for at least about 30 minutes, the sample was either refrigerated or the AO staining procedure was carried to completion. To stain, 100 μl of a 0.1% acridine orange solution were added to the 1.0 ml spore sample and the dye was allowed to react with the spores for approximately five to eight minutes. Polycarbonate membranes (Poretics®, Osmonics, Livermore Calif.) 25 mm in diameter, 0.2 μm porosity, and black in color were soaked in sterile, distilled water for about 5 to 10 minutes. The membranes were then placed on a millipore filter apparatus. One ml aliquots from control or treated samples which had been stained with AO were placed onto the filters and vacuum was applied. The samples were filtered until the fluid was removed. Then, the filter apparatus container from which the fluid had been removed was rinsed with distilled water to ensure that all cells or spores were impinged upon the filter surface. The filter was laid upon a clean microscope slide, a drop of mineral oil applied to the surface of the membrane, and a clean coverslip was laid onto the membrane.
The AODC slide was examined under a microscope using ultraviolet optics (Olympus VANOX-T equipped for light, phase-contrast, and UV-fluorescence microscopy) which microscope was also fitted with photographic and TV Monitoring equipment. A scaled grid in the eyepiece of the microscope permitted the direct counting of the bacterial spores, bacilli, or other bodies that are stained by the dye and which fluoresce under the UV optics. To determine the number of cells/spores in a sample, the number counted in the entire grid was multiplied by 3.3×10^4 and by any dilution factor of the sample.
as §1, §3, §4

[5] = test system: B. subtilis (Difco) spores; assay: MALS (DAWN-F) measurement of spores directly after ozone treatment; type: cell-based, Bacillus subtilis; conditions: 0.3 ppm ozone; for MALS Intensity: no incubation
From the text: The MALS instrument used was the DAWN Model F (Wyatt Technology Corp., Santa Barbara, Calif.), which is a flow-through instrument permitting the liquid from a sample to pass through a flow cell while continuously making measurements on the particles as they pass through the cell. Otherwise, the instrument is virtually identical to the DAWN Model B previously described elsewhere herein.
(§5) Ozone model CD-1B (Aqua-Flo, Inc., Baltimore, Md.), equipped with voltage regulator and oxygen flow controls was used to generate an ozone doses of 0.3 to 0.35 ppm in water. Ozone was generated from oxygen, supplied from an oxygen tank with O2 purity of more than about 99.9%. The generator was fitted with a voltage regulator and an oxygen flow regulator which enabled the precise setting of oxygen flow and voltage parameters such that the desired concentration of O3 could be maintained continuously. An oxygen flow rate of 8 ft^3/hr, at 5 psi, and approximately 70 to 80 amps was used to generate the concentrations specified. Excess (head) ozone was passed through a platinum catalyst that converted it back to oxygen where it was released into a vented chemical safety hood.
as §1, §2, §3, §4

[6] = test system: B. stearothermophilus spores; assay: Ozone treatment of B. stearothermophilus spores, MALS directly after treatment; type: cell-based, Bacillus stearothermophilus; conditions: about 0.3 ppm ozone, 5 to 20 min, 0 hours post-treatment
From the text: as §5
By the use of toggle switches, the ozone was directed through glass spargers into either of two specifically designated 2-liter Erlenmeyer flasks containing one liter of distilled water. […] The ozone concentrations were measured using chemical oxidation of indigo dye using an Ozone Pocket Colorimeter™ per manufacturer's instructions (HACH, Inc., Loveland, Colo.). Bacillus spores, at a concentration of 2×10^6 spores/milliliter were exposed to ozone for treatment times of 0, 5, 10, 15, 20, and 30 minutes, after which times they were measured by MALS, AODC, and CFU, respectively. […]

## C1CO1 [EO, ethylene oxide]
B. subtilis spores [1]; EO samples immersed within 10, 50, and 100 ml of water
  bacterial growth of BI immersed in water: all positive for bacterial growth
B. subtilis spores [1]; spores dried on glass slide, 2.5 hour EO exposure, heat-shocked, incubated in 5% BHI
  viable colonies on TSA plates: no viable colonies
B. subtilis spores [1]; spores dried on glass slide, EO cycle, 0 to 4 hours incubation
  AODC direct counts during incubation: no increase in direct counts

## OO [H2O2, hydrogen peroxide]
B. subtilis spores [2]; H2O2-sterilized BI after 3 hours of incubation vs control at 0 minutes
  MALS N/No value: 1.0
B. subtilis spores [2]; STERRAD* cycle about 70 minutes, 10 plates on each of triplicate samples
  growth on TSA plates: no growth on any plate

## O=[O+][O-] [ozone]
B. stearothermophilus
  D value (time required to reduce the number of spores by 1 log): 4.3 minutes
[3]; 5 min
  kill of the spore population: 41.4%
  viable spores after treatment: 1.23×10^6 spores/ml
[3]; 5 min treatment
  CFU % of AODC: 76.9%
  CFU % of Control: 58.5%
  CFU/ml: 1.23 × 10^6 CFU/ml
[3]; 10 min treatment
  CFU % of AODC: 14.5%
  CFU % of Control: 8.0%
  CFU/ml: 1.68 × 10^5 CFU/ml
[3]; 15 min
  kill of the spore population: 91%
  viable spores after treatment: 1.8×10^3 spores/ml
[3]; 15 min treatment
  CFU % of AODC: 0.14%
  CFU % of Control: 0.09%
  CFU/ml: 1.80 × 10^3 CFU/ml
[3]; 20 min treatment
  CFU % of AODC: 0.04%
  CFU % of Control: 0.009%
  CFU/ml: 1.82 × 10^2 CFU/ml
[3]; 30 min
  kill of the spore population: 99.995%
  viable spores after treatment: 10 spores/mL
[3]; 30 min treatment
  CFU % of AODC: 0.04%
  CFU % of Control: 0.00005%
  CFU/ml: 10 CFU/ml
[3]; 0.3 ppm×5 min
  CT (concentration x time) value: 1.5
[3]; 0.3 ppm×15 min
  CT (concentration x time) value: 4.5
[3]; 0.3 ppm×30 min
  CT (concentration x time) value: 9
B. subtilis
  D value (time required to reduce the number of spores by 1 log): 5 minutes
[4]; 5 min treatment
  AODC % of control: 68.3%
  AODC Spores per ml: 1.6 × 10^6 spores per ml
[4]; 10 min treatment
  AODC % of control: 49.5%
  AODC Spores per ml: 1.16 × 10^6 spores per ml
[4]; 15 min treatment
  AODC % of control: 55.1%
  AODC Spores per ml: 1.29 × 10^6 spores per ml
[4]; 20 min treatment
  AODC % of control: 20.8%
  AODC Spores per ml: 4.87 × 10^5 spores per ml
[4]; 30 min treatment
  AODC % of control: 21.5%
  AODC Spores per ml: 5.03 × 10^5 spores per ml
[5]; 5 min treatment
  MALS % of control: 65.33%
[5]; 5 min treatment, log weighted average of intensities at all detectors
  MALS Intensity: 1591.92
[5]; 10 min treatment
  MALS % of control: 51.89%
  MALS Intensity: 1264.26
[5]; 15 min treatment
  MALS % of control: 42.67%
  MALS Intensity: 1039.64
[5]; 20 min treatment
  MALS % of control: 34.94%
  MALS Intensity: 851.5
[5]; 30 min treatment
  MALS % of control: 27.96%
  MALS Intensity: 681.2
[6]
  change in spore concentrations (MALS): decreases in spore concentrations with increasing exposure to ozone
